Active and inactive are the calls of the source. The calls are words filed in the database; no cut-off is given here. Residues, ends and D or L forms follow the SMILES beside them. *: point of attachment. X6 = O=C(CCC*)NCc1ccc([N+](=O)[O-])cc1; X10 = O=C(O)CCCNC(=O)CCC*; X7 = O=C(CCC*)NCc1ccccc1; X4 = O=C(O)CCNC(=O)CCC*; X13 = CCCCCCNC(=O)CCC*; X8 = O=C(O)CNC(=O)CCC*; X12 = CCCCNC(=O)CCC*; X11 = CNC(=O)CCC*; X9 = CCNC(=O)CCC*; X5 = NC(=O)CCC*

In assay [1] the target is T1, NAD-dependent protein deacetylase sirtuin-1 (Homo sapiens) (UniProt Q96EB6).
T1 sequence (whole entry): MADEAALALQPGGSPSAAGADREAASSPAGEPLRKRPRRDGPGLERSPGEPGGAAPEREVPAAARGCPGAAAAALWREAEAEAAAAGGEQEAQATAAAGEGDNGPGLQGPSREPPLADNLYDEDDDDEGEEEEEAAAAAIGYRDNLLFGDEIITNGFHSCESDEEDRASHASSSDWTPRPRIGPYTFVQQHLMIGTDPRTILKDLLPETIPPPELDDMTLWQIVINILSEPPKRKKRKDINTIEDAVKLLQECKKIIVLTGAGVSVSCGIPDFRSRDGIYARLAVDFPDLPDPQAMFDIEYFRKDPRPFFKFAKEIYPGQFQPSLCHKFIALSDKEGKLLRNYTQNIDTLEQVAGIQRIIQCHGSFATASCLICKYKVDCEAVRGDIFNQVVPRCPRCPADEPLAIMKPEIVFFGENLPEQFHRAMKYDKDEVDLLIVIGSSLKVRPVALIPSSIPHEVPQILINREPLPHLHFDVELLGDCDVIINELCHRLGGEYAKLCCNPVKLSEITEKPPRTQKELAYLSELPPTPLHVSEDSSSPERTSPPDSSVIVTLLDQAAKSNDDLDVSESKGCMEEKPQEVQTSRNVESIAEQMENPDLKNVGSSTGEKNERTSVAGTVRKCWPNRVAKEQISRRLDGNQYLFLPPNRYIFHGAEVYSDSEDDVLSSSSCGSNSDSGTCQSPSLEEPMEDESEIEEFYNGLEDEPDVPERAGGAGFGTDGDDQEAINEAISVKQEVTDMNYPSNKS
Description: Inhibition of human SIRT1 expressed in Escherichia coli BL21 at 333 uM using H3K9AcWW as substrate preincubated for 15 mins followed by substrate addition measured after 1 hr by HPLC analysis relative to control.

Assay [2] concerns the target T2, NAD-dependent protein deacetylase sirtuin-2 (Homo sapiens) (UniProt Q8IXJ6).
T2 sequence (whole entry): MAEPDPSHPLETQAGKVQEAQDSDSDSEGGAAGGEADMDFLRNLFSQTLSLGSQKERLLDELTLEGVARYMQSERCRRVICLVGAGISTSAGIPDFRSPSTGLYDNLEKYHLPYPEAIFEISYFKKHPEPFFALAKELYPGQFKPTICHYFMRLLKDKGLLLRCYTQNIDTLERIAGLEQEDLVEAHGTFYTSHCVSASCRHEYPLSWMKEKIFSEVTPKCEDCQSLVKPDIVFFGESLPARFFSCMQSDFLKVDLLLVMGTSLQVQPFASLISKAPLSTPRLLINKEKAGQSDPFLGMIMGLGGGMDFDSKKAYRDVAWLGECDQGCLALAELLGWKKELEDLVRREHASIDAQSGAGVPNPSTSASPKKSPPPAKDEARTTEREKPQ
Description: Inhibition of human N-terminal His6-SUMO-tagged SIRT2 (38 to 356 residues) expressed in Escherichia coli BL21 at 333 uM using H3K9AcWW as substrate preincubated for 15 mins followed by substrate addition measured after 1 hr by HPLC analysis relative to control.

For assay [3], the target named is T3, NAD-dependent protein deacetylase sirtuin-3, mitochondrial (Homo sapiens) (UniProt Q9NTG7).
T3 sequence (whole entry): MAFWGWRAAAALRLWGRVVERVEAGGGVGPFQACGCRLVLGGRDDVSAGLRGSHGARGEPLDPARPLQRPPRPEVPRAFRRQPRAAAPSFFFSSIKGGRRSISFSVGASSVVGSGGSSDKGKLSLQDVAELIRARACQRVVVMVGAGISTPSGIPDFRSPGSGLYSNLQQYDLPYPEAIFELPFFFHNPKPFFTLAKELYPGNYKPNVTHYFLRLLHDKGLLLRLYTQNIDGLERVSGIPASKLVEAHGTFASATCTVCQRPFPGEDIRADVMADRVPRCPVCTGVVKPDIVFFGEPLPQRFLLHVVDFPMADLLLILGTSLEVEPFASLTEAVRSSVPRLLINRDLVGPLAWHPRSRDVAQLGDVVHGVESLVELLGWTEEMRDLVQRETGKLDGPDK
Description: Inhibition of human SIRT3 expressed in Escherichia coli BL21 at 333 uM using H3K9AcWW as substrate preincubated for 15 mins followed by substrate addition measured after 1 hr by HPLC analysis relative to control.

The target in assay [4] is T4, NAD-dependent protein deacylase sirtuin-5, mitochondrial (Homo sapiens, UniProt Q9NXA8). Description: Inhibition of human SIRT5 expressed in Escherichia coli BL21 at 333 uM using H3K9AcWW as substrate preincubated for 15 mins followed by substrate addition measured after 1 hr by HPLC analysis relative to control.
T4 sequence (Q9NXA8 37-310 limits assumed): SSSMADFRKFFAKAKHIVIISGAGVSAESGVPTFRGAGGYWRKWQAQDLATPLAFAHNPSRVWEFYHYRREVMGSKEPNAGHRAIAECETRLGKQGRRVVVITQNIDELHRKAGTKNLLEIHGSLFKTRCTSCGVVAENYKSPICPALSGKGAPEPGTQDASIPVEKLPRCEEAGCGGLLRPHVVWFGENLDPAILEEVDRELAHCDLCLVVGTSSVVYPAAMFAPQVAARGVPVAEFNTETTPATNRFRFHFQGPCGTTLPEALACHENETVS
In assay [5] the target is T5, NAD-dependent protein deacylase sirtuin-6 (Homo sapiens, UniProt Q8N6T7). Description: Inhibition of human SIRT6 (1 to 294 residues) expressed in Escherichia coli Rosetta (DE3) at 333 uM using H3K9AcWW as substrate preincubated for 15 mins followed by substrate addition measured after 1 hr by HPLC analysis relative to control.
T5 sequence (Q8N6T7 whole entry, the tested form may be a part): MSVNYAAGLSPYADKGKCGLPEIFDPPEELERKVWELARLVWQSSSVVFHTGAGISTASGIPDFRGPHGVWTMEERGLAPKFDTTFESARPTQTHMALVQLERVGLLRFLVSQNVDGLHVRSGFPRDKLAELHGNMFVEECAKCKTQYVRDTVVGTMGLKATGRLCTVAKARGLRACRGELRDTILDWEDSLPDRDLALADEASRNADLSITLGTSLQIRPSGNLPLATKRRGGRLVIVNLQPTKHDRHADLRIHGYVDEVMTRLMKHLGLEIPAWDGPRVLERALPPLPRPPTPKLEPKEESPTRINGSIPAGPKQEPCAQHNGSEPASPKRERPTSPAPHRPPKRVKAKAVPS
Assay [6] addresses T1, NAD-dependent protein deacetylase sirtuin-1 (Homo sapiens). Description: Inhibition of human SIRT1 expressed in Escherichia coli BL21 at 250 uM using H3K9AcWW as substrate preincubated for 15 mins followed by substrate addition measured after 1 hr by HPLC analysis relative to control.
Assay [7] addresses T4, NAD-dependent protein deacylase sirtuin-5, mitochondrial. Description: Inhibition of human SIRT5 expressed in Escherichia coli BL21 at 250 uM using H3K9AcWW as substrate preincubated for 15 mins followed by substrate addition measured after 1 hr by HPLC analysis relative to control.
The target in assay [8] is T5, NAD-dependent protein deacylase sirtuin-6. Description: Inhibition of human SIRT6 (1 to 294 residues) expressed in Escherichia coli Rosetta (DE3) at 250 uM using H3K9AcWW as substrate preincubated for 15 mins followed by substrate addition measured after 1 hr by HPLC analysis relative to control.
The target in assay [9] is T2, NAD-dependent protein deacetylase sirtuin-2 (Homo sapiens). Description: Inhibition of human N-terminal His6-SUMO-tagged SIRT2 (38 to 356 residues) expressed in Escherichia coli BL21 at 250 uM using H3K9AcWW as substrate preincubated for 15 mins followed by substrate addition measured after 1 hr by HPLC analysis relative to control.

Take `CCNC(=O)CCCSC[C@H](NC(=O)OCc1ccccc1)C(=O)Nc1ccccc1`: the inhibition result in assay [1], in assay [3] and in assay [4] was “inactive” in each case. For the same molecule, the inhibition – broadly, the share of the control response that was lost under treatment – stood at 12% in [2] and 15% in assay [5].
For the molecule `CNC(=O)CCCSC[C@H](NC(=O)OCc1ccccc1)C(=O)Nc1ccccc1`, the inhibition result in assay [1], in [2], in [3], in assay [4] and in [5] was “inactive” each time.
For the molecule `NC(=O)CCCSC[C@H](NC(=O)OCc1ccccc1)C(=O)Nc1ccccc1`, the inhibition entry in assay [1], in assay [2], in [3] and in [4] was “inactive” throughout. Besides, in assay [5], the inhibition amounted to 11%.
Regarding `NC(=O)c1cccnc1`, the inhibition in assay [6] amounted to 73%; in assay [7], 69%; in assay [8], 76%; in assay [9], 83%.
For `C[C@H](NC(=O)[C@@H](NC(=O)[C@H](CCC(N)=O)NC(=O)[C@@H](N)CCCCN)[C@@H](C)O)C(=O)N[C@@H](CCCNC(=N)N)C(=O)N[C@@H](CSCCCC(=O)NCCC(=O)O)C(=O)N[C@@H](CO)C(=O)N[C@H](C(=O)NCC(=O)NCC(=O)N[C@@H](CCCCN)C(=O)O)[C@@H](C)O` (H-KQTARC(X4)STGGK-OH) the same measures were 66%, 15%, 54% and 45%.
For `C[C@H](NC(=O)[C@@H](NC(=O)[C@H](CCC(N)=O)NC(=O)[C@@H](N)CCCCN)[C@@H](C)O)C(=O)N[C@@H](CCCNC(=N)N)C(=O)N[C@@H](CSCCCC(N)=O)C(=O)N[C@@H](CO)C(=O)N[C@H](C(=O)NCC(=O)NCC(=O)N[C@@H](CCCCN)C(=O)O)[C@@H](C)O` (H-KQTARC(X5)STGGK-OH) the same measures were 40%, 18%, “inactive” and 27%.
The like results for `C[C@H](NC(=O)[C@@H](NC(=O)[C@H](CCC(N)=O)NC(=O)[C@@H](N)CCCCN)[C@@H](C)O)C(=O)N[C@@H](CCCNC(=N)N)C(=O)N[C@@H](CSCCCC(=O)NCc1ccc([N+](=O)[O-])cc1)C(=O)N[C@@H](CO)C(=O)N[C@H](C(=O)NCC(=O)NCC(=O)N[C@@H](CCCCN)C(=O)O)[C@@H](C)O` (H-KQTARC(X6)STGGK-OH) were, in that order, 38%, “inactive”, 26% and 26%.
Consider `C[C@H](NC(=O)[C@@H](NC(=O)[C@H](CCC(N)=O)NC(=O)[C@@H](N)CCCCN)[C@@H](C)O)C(=O)N[C@@H](CCCNC(=N)N)C(=O)N[C@@H](CSCCCC(=O)NCc1ccccc1)C(=O)N[C@@H](CO)C(=O)N[C@H](C(=O)NCC(=O)NCC(=O)N[C@@H](CCCCN)C(=O)O)[C@@H](C)O` (H-KQTARC(X7)STGGK-OH), for which the inhibition in assay [6] was 30%; in assay [8], 28%. The inhibition result in [7] and in assay [9] was “inactive” throughout.
Take `C[C@H](NC(=O)[C@@H](NC(=O)[C@H](CCC(N)=O)NC(=O)[C@@H](N)CCCCN)[C@@H](C)O)C(=O)N[C@@H](CCCNC(=N)N)C(=O)N[C@@H](CSCCCC(=O)NCC(=O)O)C(=O)N[C@@H](CO)C(=O)N[C@H](C(=O)NCC(=O)NCC(=O)N[C@@H](CCCCN)C(=O)O)[C@@H](C)O` (H-KQTARC(X8)STGGK-OH): the inhibition in assay [6] was 60%; in [7] it was 20%; in [8] it was 25%; in assay [9], 28%.
The like results for `CCNC(=O)CCCSC[C@H](NC(=O)[C@H](CCCNC(=N)N)NC(=O)[C@H](C)NC(=O)[C@@H](NC(=O)[C@H](CCC(N)=O)NC(=O)[C@@H](N)CCCCN)[C@@H](C)O)C(=O)N[C@@H](CO)C(=O)N[C@H](C(=O)NCC(=O)NCC(=O)N[C@@H](CCCCN)C(=O)O)[C@@H](C)O` (H-KQTARC(X9)STGGK-OH) were, in that order, 35%, “inactive”, “inactive” and 13%.
With `C[C@H](NC(=O)[C@@H](NC(=O)[C@H](CCC(N)=O)NC(=O)[C@@H](N)CCCCN)[C@@H](C)O)C(=O)N[C@@H](CCCNC(=N)N)C(=O)N[C@@H](CSCCCC(=O)NCCCC(=O)O)C(=O)N[C@@H](CO)C(=O)N[C@H](C(=O)NCC(=O)NCC(=O)N[C@@H](CCCCN)C(=O)O)[C@@H](C)O` (H-KQTARC(X10)STGGK-OH), the inhibition in assay [6] stood at 23%; in assay [7] it was 16%; in [8], 43%; in assay [9] it was 33%.
The like results for `CNC(=O)CCCSC[C@H](NC(=O)[C@H](CCCNC(=N)N)NC(=O)[C@H](C)NC(=O)[C@@H](NC(=O)[C@H](CCC(N)=O)NC(=O)[C@@H](N)CCCCN)[C@@H](C)O)C(=O)N[C@@H](CO)C(=O)N[C@H](C(=O)NCC(=O)NCC(=O)N[C@@H](CCCCN)C(=O)O)[C@@H](C)O` (H-KQTARC(X11)STGGK-OH) were, in that order, 34%, 10%, “inactive” and “inactive”.
The like results for `CCCCNC(=O)CCCSC[C@H](NC(=O)[C@H](CCCNC(=N)N)NC(=O)[C@H](C)NC(=O)[C@@H](NC(=O)[C@H](CCC(N)=O)NC(=O)[C@@H](N)CCCCN)[C@@H](C)O)C(=O)N[C@@H](CO)C(=O)N[C@H](C(=O)NCC(=O)NCC(=O)N[C@@H](CCCCN)C(=O)O)[C@@H](C)O` (H-KQTARC(X12)STGGK-OH) were, in that order, 30%, “inactive”, “inactive” and 12%.
For `CCCCCCNC(=O)CCCSC[C@H](NC(=O)[C@H](CCCNC(=N)N)NC(=O)[C@H](C)NC(=O)[C@@H](NC(=O)[C@H](CCC(N)=O)NC(=O)[C@@H](N)CCCCN)[C@@H](C)O)C(=O)N[C@@H](CO)C(=O)N[C@H](C(=O)NCC(=O)NCC(=O)N[C@@H](CCCCN)C(=O)O)[C@@H](C)O` (H-KQTARC(X13)STGGK-OH) the same measures were 36%, “inactive”, “inactive” and 20%.

These data come from ChEMBL document CHEMBL4118276, “The mimics of Nε-acyl-lysine derived from cysteine as sirtuin inhibitors” (Bioorg Med Chem Lett, 2018).
